Where two headings read alike, the source gives them in different places. Bridges are numbered along the chain shown (N, C = ends). Where no end group is shown, it is not given here. The star is where a group is joined. 125I = [125I]*
Assays:
[1] = system: somatostatin receptors, rat cerebral cortex membranes; experiment: competitive displacement of 125I-tyr-11-somatostatin-14, rat cerebral cortex plasma membranes (positive control); assay type: binding, rat (Wistar)
From the text: Br. J. Cancer (1992), 66, 391 395 ? Macmillan Press Ltd., 1992~~~~~~~~~~~~~~~~~~~~~~~~~~~~~~~~~~~~~~~~~~~~~~~~~~~~~~~~~~~~~~ Somatostatin binding in normal and malignant human gastrointestinal mucosa G.V. Miller, S.M. Farmery, L.F. Woodhouse & J.N. Primrose University Department of Surgery, St. James's University Hospital, Beckett Street, Leeds LS9 7TF, UK. Summary Somatostatin is a regulatory peptide implicated in the control of cellular proliferation in epithelial tissues and this regulation may occur directly via membrane bound receptor activation. The aim of this study was to investigate somatostatin binding in human gastrointestinal cancer and normal mucosa. Plasma membranes were prepared from specimens of tumour and normal mucosa from 51 patients undergoing surgical resection for malignancy (28 gastric, 23 colorectal). Using a competitive displacement assay, specific '251-tyrosine -1 -somatostatin-14 binding to plasma membranes was assessed and characterised in terms of receptor affinity (Kd) and maximum binding capacity (Bmax) as determined by Scatchard analysis. […] Similar affinity and binding capacity was demonstrable in normal mucosal samples. […] The functional significance of these low affinity binding sites requires elucidation to determine whether long-acting somatostatin analogues may have therapeutic benefit in gastrointestinal malignancy. Hormonal manipulation, by surgical or medical methods, has been used extensively in therapy for carcinoma of the breast, prostate, thyroid and in certain gut endocrine tumours (Horowitz et al., 1975; Higgins et al., 1941; Crile, 1957; Osei et al., 1985). There is, however, no currently defined role for endocrine therapy in non-endocrine gastrointestinal cancer. […] Any benefit from systemic therapy is usually abrogated by systemic toxicity (Rake et al., 1979; Engstrom et al., 1985; Bleiberg, 1990). For this reason a non-toxic, effective, treat- ment modality would be of value to improve the outlook for those patients with advanced disease. There is increasing evidence that tumours arising from the gastrointestinal tract are, at least in part, hormone depen- dent. Numerous hormones have now been implicated in the pathogenesis and development of gastrointestinal malig- nancy, including gastrin, epidermal growth factor, entero- pancreatic hormones and oestrogenic steroids (Sirinek et al., 1985; Watson et al., 1988; Li et al., 1980; Howatson & Carter, 1985; McMichael et al., 1980). […] Somatostatin and its analogues are good candidates for use as endocrine agents in the treatment of gastrointestinal cancer. […]

[2] = system: somatostatin binding sites, human gastric adenocarcinoma membranes; experiment: competitive displacement of 125I-tyr-11-somatostatin-14, human gastric adenocarcinoma plasma membranes
From the text: (§1) Br. J. Cancer (1992), 66, 391 395 ? Macmillan Press Ltd., 1992~~~~~~~~~~~~~~~~~~~~~~~~~~~~~~~~~~~~~~~~~~~~~~~~~~~~~~~~~~~~~~ Somatostatin binding in normal and malignant human gastrointestinal mucosa G.V. Miller, S.M. Farmery, L.F. Woodhouse & J.N. Primrose University Department of Surgery, St. James's University Hospital, Beckett Street, Leeds LS9 7TF, UK. Summary Somatostatin is a regulatory peptide implicated in the control of cellular proliferation in epithelial tissues and this regulation may occur directly via membrane bound receptor activation. The aim of this study was to investigate somatostatin binding in human gastrointestinal cancer and normal mucosa. Plasma membranes were prepared from specimens of tumour and normal mucosa from 51 patients undergoing surgical resection for malignancy (28 gastric, 23 colorectal). Using a competitive displacement assay, specific '251-tyrosine -1 -somatostatin-14 binding to plasma membranes was assessed and characterised in terms of receptor affinity (Kd) and maximum binding capacity (Bmax) as determined by Scatchard analysis. […] Similar affinity and binding capacity was demonstrable in normal mucosal samples. […] The functional significance of these low affinity binding sites requires elucidation to determine whether long-acting somatostatin analogues may have therapeutic benefit in gastrointestinal malignancy. Hormonal manipulation, by surgical or medical methods, has been used extensively in therapy for carcinoma of the breast, prostate, thyroid and in certain gut endocrine tumours (Horowitz et al., 1975; Higgins et al., 1941; Crile, 1957; Osei et al., 1985). There is, however, no currently defined role for endocrine therapy in non-endocrine gastrointestinal cancer. […] Any benefit from systemic therapy is usually abrogated by systemic toxicity (Rake et al., 1979; Engstrom et al., 1985; Bleiberg, 1990). For this reason a non-toxic, effective, treat- ment modality would be of value to improve the outlook for those patients with advanced disease. There is increasing evidence that tumours arising from the gastrointestinal tract are, at least in part, hormone depen- dent. Numerous hormones have now been implicated in the pathogenesis and development of gastrointestinal malig- nancy, including gastrin, epidermal growth factor, entero- pancreatic hormones and oestrogenic steroids (Sirinek et al., 1985; Watson et al., 1988; Li et al., 1980; Howatson & Carter, 1985; McMichael et al., 1980). […] Somatostatin and its analogues are good candidates for use as endocrine agents in the treatment of gastrointestinal cancer. The native peptide is widely distributed in the body and, amongst its many inhibitory actions, has a putative role as an anti-proliferative agent in both normal (Lehy et al., 1979) and malignant (Singh et al., 1986) tissue. The mechanisms involved in this anti-proliferative action have not, as yet, been confirmed. Both the native peptide and its analogues act at the somatotrophs of the anterior pituitary suppressing growth hormone production and release (Adrian et al., 1981). This may influence the proliferation of target tissues directly or may result in a substantial reduction in local growth factor release (Kirkegaard et al., 1984). Further, the production of other trophic hormones such as gastrin Correspondence: J.N. Primrose, University Department of Surgery, Clinical Sciences Building, St James's University Hospital, Beckett St, Leeds LS9 7TF, UK. Received 18 November 1991; and in revised form 9 March 1992. and insulin, either from normal cells or from hormonally active tumour cells, could be suppressed by somatostatin (Morris et al., 1988). The most interesting mechanism, how- ever, involves the interaction of the peptide with specific membrane bound receptors upon proliferating cells. […]

[3] = system: somatostatin binding sites, normal colonic mucosa plasma membranes; experiment: competitive displacement of 125I-tyr-11-somatostatin-14, normal colonic mucosa plasma membranes; parameters: species or system human; conditions: 15 of 23 preparations; Scatchard/LIGAND; pH 7.4, 1 h, 35 °C; median (quartiles)
From the text: (§2) Br. J. Cancer (1992), 66, 391 395 ? Macmillan Press Ltd., 1992~~~~~~~~~~~~~~~~~~~~~~~~~~~~~~~~~~~~~~~~~~~~~~~~~~~~~~~~~~~~~~ Somatostatin binding in normal and malignant human gastrointestinal mucosa G.V. Miller, S.M. Farmery, L.F. Woodhouse & J.N. Primrose University Department of Surgery, St. James's University Hospital, Beckett Street, Leeds LS9 7TF, UK. Summary Somatostatin is a regulatory peptide implicated in the control of cellular proliferation in epithelial tissues and this regulation may occur directly via membrane bound receptor activation. The aim of this study was to investigate somatostatin binding in human gastrointestinal cancer and normal mucosa. Plasma membranes were prepared from specimens of tumour and normal mucosa from 51 patients undergoing surgical resection for malignancy (28 gastric, 23 colorectal). Using a competitive displacement assay, specific '251-tyrosine -1 -somatostatin-14 binding to plasma membranes was assessed and characterised in terms of receptor affinity (Kd) and maximum binding capacity (Bmax) as determined by Scatchard analysis. […] Similar affinity and binding capacity was demonstrable in normal mucosal samples. […] The functional significance of these low affinity binding sites requires elucidation to determine whether long-acting somatostatin analogues may have therapeutic benefit in gastrointestinal malignancy. […]

[4] = native peptide; no reference printed for this sentence; cited from earlier work
From the text: Br. J. Cancer (1992), 66, 391 395 ? Macmillan Press Ltd., 1992~~~~~~~~~~~~~~~~~~~~~~~~~~~~~~~~~~~~~~~~~~~~~~~~~~~~~~~~~~~~~~ Somatostatin binding in normal and malignant human gastrointestinal mucosa G.V. Miller, S.M. Farmery, L.F. Woodhouse & J.N. Primrose University Department of Surgery, St. James's University Hospital, Beckett Street, Leeds LS9 7TF, UK. Summary Somatostatin is a regulatory peptide implicated in the control of cellular proliferation in epithelial tissues and this regulation may occur directly via membrane bound receptor activation. The aim of this study was to investigate s ...

[5] = system: somatostatin binding sites, gastric body mucosal plasma membranes; experiment: competitive displacement of 125I-tyr-11-somatostatin-14, normal gastric body mucosa plasma membranes; parameters: species or system human; conditions: 21 of 28 preparations, including mucosa of the patient with high affinity tumour, Scatchard/LIGAND, pH 7.4, 1 h, 35 °C, median (quartiles)
From the text: as §2

[6] = system: somatostatin binding sites, colorectal adenocarcinoma plasma membranes; experiment: competitive displacement of 125I-tyr-11-somatostatin-14, human colorectal adenocarcinoma plasma membranes; conditions: for Bmax: Table I, colorectal
From the text: as §1

## 125I-tyrosine-11-somatostatin-14 (AGCKNFFWKTY(125I)TSC; disulfide 3-14; ends not checked; UniProt P61278 103-116, looked up, variant F11Y) [125I-tyr-11-somatostatin-14, radioligand made by Chloramine T iodination of tyr-11-somatostatin-14]
[1]; 35 °C versus room temperature (21 °C)
  increase in specific bound counts at 35 °C versus 21 °C: 20-30%
[2]; 22 of 28 tumours, Scatchard/LIGAND, pH 7.4, 1 h, 35 °C, median (quartiles)
  Bmax, low affinity binding: 1.2 (0.7-5.7) pmol mg-1 protein
[2]; 22 of 28 tumours, Scatchard/LIGAND, pH 7.4, 1 h, 35 °C, median (quartiles), read-out: affinity (Kd), low affinity binding
  Kd: 170 nM

## somatostatin-14
[1]; Figure 1 inset, single representative experiment, Scatchard plot by LIGAND
  Bmax: 0.21 pmol mg-1 protein
[1]; Figure 1 inset, single representative experiment, Scatchard plot by LIGAND, read-out: Kd
  Kd: 0.92 nM
[1]; Scatchard/LIGAND, HEPES-KOH pH 7.4, 1 h, 35 °C, median (range), read-out: receptor affinity (Kd)
  Kd: 0.85 nM
[3]
  Bmax: 0.7 (0.3-3.5) pmol mg-1 protein
  Kd: 130 nM
[2]; Figure 2 inset, single representative experiment, Scatchard plot
  Bmax: 6.1 pmol mg-1 protein
[2]; Figure 2 inset, single representative experiment, Scatchard plot, read-out: Kd
  Kd: 165 nM
[2]; Table I, gastric, grade Mod, pH 7.4, 1 h, 35 °C, median (quartiles)
  Bmax: 1.04 (0.23-6.23) pmol mg-1 protein
[2]; Table I, gastric, grade Poor, pH 7.4, 1 h, 35 °C, median (quartiles)
  Bmax: 1.17 (0.67-5.71) pmol mg-1 protein
[2]; Table I, gastric, grade Well, pH 7.4, 1 h, 35 °C, one sample
  Bmax: 5.11 pmol mg-1 protein
[2]; Table I, gastric, site: Antrum, pH 7.4, 1 h, 35 °C, median (quartiles)
  Bmax: 1.04 (0.67 -3.36) pmol mg-1 protein
[2]; Table I, gastric, site: Body, pH 7.4, 1 h, 35 °C, median (quartiles)
  Bmax: 0.83 (0.25 -7.43) pmol mg-1 protein
[2]; Table I, gastric, site: Cardia, pH 7.4, 1 h, 35 °C, median (quartiles)
  Bmax: 1.73 (1.23-5.11) pmol mg-1 protein
[2]; Table I, gastric, stage I (TNM), pH 7.4, 1 h, 35 °C, one sample
  Bmax: 0.28 pmol mg-1 protein
[2]; Table I, gastric, stage II (TNM), pH 7.4, 1 h, 35 °C, median (quartiles)
  Bmax: 0.79 (0.23-1.04) pmol mg-1 protein
[2]; Table I, gastric, stage III (TNM), pH 7.4, 1 h, 35 °C, median (quartiles)
  Bmax: 1.24 (0.77-6.11) pmol mg-1 protein
[2]; Table I, gastric, stage IV (TNM), pH 7.4, 1 h, 35 °C, one sample
  Bmax: 6.3 pmol mg-1 protein
[2]; abstract, 22 gastric cancers, Scatchard analysis
  Bmax, low affinity high capacity binding: 1.2 pmol mg-1 protein
[2]; one gastric carcinoma (one patient), Scatchard/LIGAND
  Bmax, high affinity receptors: 0.23 pmol mg-1 protein
[2]; one gastric carcinoma (one patient), Scatchard/LIGAND, read-out: Kd, high affinity receptors
  Kd: 0.9 nM
[4]
  half life in the circulation: less than 3 min
[5]
  Bmax, low affinity high capacity binding: 3.9 (1.2-6.6) pmol mg-1 protein
[5]; read-out: Kd, low affinity high capacity binding
  Kd: 180 nM
[6]; 17 of 23 preparations, Scatchard/LIGAND, pH 7.4, 1 h, 35 °C, median (quartiles)
  Bmax, low affinity high capacity binding: 1.8 (1.2-2.9) pmol mg-1 protein
[6]; grade Mod, pH 7.4, 1 h, 35 °C, median (quartiles)
  Bmax: 1.72 (1.30-2.69) pmol mg-1 protein
[6]; grade Poor, pH 7.4, 1 h, 35 °C, median (quartiles)
  Bmax: 1.81 (0.74-2.87) pmol mg-1 protein
[6]; grade Well, pH 7.4, 1 h, 35 °C, median (quartiles)
  Bmax: 1.75 (0.49-2.99) pmol mg-1 protein
[6]; site: (R) Colon, pH 7.4, 1 h, 35 °C, median (quartiles)
  Bmax: 2.99 (2.12-3.94) pmol mg-1 protein
[6]; site: Rectum, pH 7.4, 1 h, 35 °C, median (quartiles)
  Bmax: 1.67 (1.02-2.78) pmol mg-1 protein
[6]; site: Sigmoid, pH 7.4, 1 h, 35 °C, median (quartiles)
  Bmax: 0.49 (0.11 -1.75) pmol mg-1 protein
[6]; stage A (Dukes), pH 7.4, 1 h, 35 °C, one sample
  Bmax: 3.40 pmol mg-1 protein
[6]; stage B (Dukes), pH 7.4, 1 h, 35 °C, median (quartiles)
  Bmax: 1.72 (1.30-2.99) pmol mg-1 protein
[6]; stage C (Dukes), pH 7.4, 1 h, 35 °C, median (quartiles)
  Bmax: 1.48 (0.62-2.41) pmol mg-1 protein
[6]; abstract, 17 colorectal cancers, Scatchard analysis
  Bmax, low affinity high capacity binding: 1.8 pmol mg-1 protein
[6]; abstract, 17 colorectal cancers, Scatchard analysis, read-out: Kd, low affinity binding
  Kd: 140 nM

Source: PMC1977804, “Somatostatin binding in normal and malignant human gastrointestinal mucosa” (British Journal of Cancer, 1992)
